The record followed here is ChEMBL document CHEMBL1201862, “PubChem BioAssay data set” (2004).

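Tested at 5 concentrations; 48 h exposure; 96-well plates; endpoints linearly interpolated, else capped at highest concentration. GI50: concentration for 50% inhibition of growth.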 The source made the active and inactive calls. Rule as the data show it: active = GI50 up to about 1.1 µM and inactive = higher. Some results are limits rather than exact numbers.

Holding throughout (test): NCI anticancer screen, dose series, 48 h
In assay [1] the test system is 786-0.
The subject of assay [2] is ACHN.
In assay [3] the test system is HL-60.
Assay [4] concerns HOP-92.
Assay [5] concerns HT-29.
The subject of assay [6] is IGROV-1.
Assay [7] concerns KM12.
The subject of assay [8] is MDA-MB-435.
Assay [9] relates to MDA-N.
In assay [10] the test system is MOLT-4.
The test system of assay [11] is Malme-3M.
For assay [12], the system named is OVCAR-8.
For assay [13], the system named is RPMI-8226.
Assay [14] deals with SF-268.
Assay [15] deals with SF-539.
Assay [16] concerns SK-MEL-28.
The test system of assay [17] is SK-MEL-2.
The test system of assay [18] is SN12C.
Assay [19] deals with TK-10.

Turning to `O=C1/C(=C/c2ccc(O)cc2)CCc2ccc([N+](=O)[O-])cc21`, the GI50 was > 80.5 µM (inactive) in assay [1]; > 81.3 µM (inactive) in assay [2]; 5.5 µM (inactive) in [3]; 29.1 µM (inactive) in assay [4]; > 100 µM (inactive) in [5]; 61.2 µM (inactive) in assay [6]. Besides, the GI50 in [7] is > 76 µM (inactive); in assay [8], > 100 µM (inactive); in assay [9], > 100 µM (inactive); in [10], 3.63 µM (inactive); in assay [11] it was 98.2 µM (inactive); in assay [12] it was > 100 µM (inactive). Also, the GI50 in [13] was 2.07 µM (inactive); in [14] it was > 61.7 µM (inactive); in [15], > 90.6 µM (inactive); in [16] it was > 100 µM (inactive); in [17], 66.5 µM (inactive); in assay [18] it was > 100 µM (inactive). Moreover, the GI50 in assay [19] was 45.2 µM (inactive).
In the case of `CCOC(=O)C(NC(=O)CC)(Nc1ccc(S(=O)(=O)Nc2ccc(OC)nn2)cc1)C(F)(F)F` (stereo not given), the GI50 in [1], in assay [2], in assay [3], in assay [4], in assay [5] and in assay [6] was > 100 µM (inactive) in each case. The GI50 in assay [7], in assay [8], in assay [9], in [10], in assay [11] and in assay [12] was > 100 µM (inactive) in each case. Moreover, the GI50 in [13], in assay [14], in assay [15], in assay [16], in assay [17] and in [18] was > 100 µM (inactive) each time. The GI50 in assay [19] is > 100 µM (inactive).
`O=C(/C=C/c1ccccc1)CCC1C(=O)NC(=O)NC1=O`: the GI50 in [1], in assay [2], in assay [3], in [4], in [5] and in assay [6] was > 100 µM (inactive) throughout. Besides, the GI50 in assay [7] was > 100 µM (inactive); in [8] it was > 100 µM (inactive); in [9], > 100 µM (inactive); in [10] it was 35.7 µM (inactive); in assay [11], > 100 µM (inactive); in assay [12], > 100 µM (inactive). Moreover, the GI50 is 43.4 µM (inactive) in assay [13]; > 100 µM (inactive) in [14]; > 100 µM (inactive) in [15]; > 100 µM (inactive) in assay [16]; > 100 µM (inactive) in [17]; > 100 µM (inactive) in [18]. Moreover, in assay [19], the GI50 was > 100 µM (inactive).
On to `CCOC(=O)C1C(c2ccc(OC)cc2)c2c(n[nH]c2O)CC1(O)OCC` (stereo not given), for which the GI50 in assay [1], in assay [2], in assay [3], in assay [4], in assay [5] and in assay [6] was > 100 µM (inactive) each time. The GI50 in assay [7], in assay [8], in assay [9], in assay [10], in [11] and in assay [12] was > 100 µM (inactive) throughout. The GI50 in assay [13], in assay [14], in assay [15], in assay [16], in assay [17] and in assay [18] was > 100 µM (inactive) in each case. For the same compound, the GI50 in [19] was > 100 µM (inactive).
Turning to `C=CCNC1=C2C[C@@H](C)C[C@@H](OC)[C@H](OC(=O)CCN(C)C)[C@H](C)/C=C(\C)[C@@H](OC(N)=O)[C@H](OC)/C=C\C=C(/C)C(=O)NC(=CC1=O)C2=O`, the GI50 was 1.43 µM (inactive) in [1]; 0.875 µM (active) in assay [2]; 0.362 µM (active) in [3]; 8.41 µM (inactive) in assay [4]; < 0.01 µM (active) in assay [5]; 0.13 µM (active) in [6]. Besides, the GI50 in [7] is 0.0342 µM (active); in assay [8] it was 0.053 µM (active); in assay [9] it was 0.0386 µM (active); in assay [10], 1.53 µM (inactive); in [11], 0.0643 µM (active); in assay [12], 0.324 µM (active). Also, the GI50 in [13] was 1.15 µM (inactive); in assay [14], 1.35 µM (inactive); in assay [15], 0.0562 µM (active); in [16] it was 0.171 µM (active); in assay [17] it was 0.059 µM (active); in assay [18], 0.0869 µM (active). Besides, the GI50 in [19] is 0.0755 µM (active).
In the case of `Cc1ccc(S(=O)(=O)N2CCN(CCN(C)CCN3CCN(S(=O)(=O)c4ccc(C)cc4)CC3)CC2)cc1`, the GI50 was 19.4 µM (inactive) in assay [1]; 17.9 µM (inactive) in [2]; 16.1 µM (inactive) in assay [3]; 17.7 µM (inactive) in assay [4]; 14.5 µM (inactive) in [5]; 16.3 µM (inactive) in [6]. Besides, the GI50 in [7] is 15.1 µM (inactive); in assay [8] it was 17.7 µM (inactive); in assay [9] it was 18.9 µM (inactive); in assay [10] it was 14.1 µM (inactive); in [11], 18.6 µM (inactive); in assay [12], 17.4 µM (inactive). Also, the GI50 in assay [13] is 16.6 µM (inactive); in assay [14], 17.2 µM (inactive); in assay [15], 16.4 µM (inactive); in assay [16], 17.1 µM (inactive); in [17], 18.8 µM (inactive); in [18] it was 18.5 µM (inactive). In addition, the GI50 in assay [19] is 16.1 µM (inactive).
With `CC(=O)OC(Cc1ccc2ccccc2n1)(C(F)(F)F)C(F)(F)F`, the GI50 in assay [1] was 1.52 µM (inactive); in [2] it was 3.78 µM (inactive); in [3], 0.0205 µM (active); in assay [4], 0.142 µM (active); in assay [5] it was 1.27 µM (inactive); in [6] it was 1.31 µM (inactive). The GI50 in assay [7] is 4.7 µM (inactive); in [8], 1.21 µM (inactive); in assay [9], 1.17 µM (inactive); in assay [10], 0.0796 µM (active); in [11], 0.849 µM (active); in [12], 1.69 µM (inactive). Further, the GI50 in [13] was 0.0272 µM (active); in assay [14] it was 2.17 µM (inactive); in [15], 2.32 µM (inactive); in [16] it was 1.42 µM (inactive); in assay [17] it was 1.36 µM (inactive); in [18] it was 1.27 µM (inactive). Besides, in [19], the GI50 is 0.33 µM (active).
As to `Cc1ccc(-c2n[nH]c(=O)[nH]2)cc1[N+](=O)[O-]`, the GI50 in assay [1], in assay [2], in assay [3], in assay [4], in assay [5] and in assay [6] was > 100 µM (inactive) each time. Besides, the GI50 in [7], in [8], in [9], in assay [10], in [11] and in [12] was > 100 µM (inactive) in each case. In addition, the GI50 in assay [13], in [14], in assay [15], in assay [16], in assay [17] and in assay [18] was > 100 µM (inactive) throughout. Further, the GI50 in assay [19] was > 100 µM (inactive).
Turning to `O=c1c2ccccc2[nH]c(=S)n1-c1ccc(/N=N/c2cccc3c(O)cccc23)cc1`, the GI50 in assay [1] is > 100 µM (inactive); in assay [2] it was 88.3 µM (inactive); in assay [3], 54.8 µM (inactive); in assay [4] it was > 100 µM (inactive); in assay [5], > 100 µM (inactive); in [6], 55.3 µM (inactive). In addition, the GI50 was > 100 µM (inactive) in [7]; 23 µM (inactive) in assay [8]; 34.4 µM (inactive) in [9]; 45.3 µM (inactive) in assay [10]; 88.9 µM (inactive) in [11]; > 100 µM (inactive) in assay [12]. Moreover, the GI50 in [13] was 65.3 µM (inactive); in [14], > 100 µM (inactive); in [15] it was > 100 µM (inactive); in [16], > 100 µM (inactive); in assay [17] it was > 100 µM (inactive); in assay [18] it was > 100 µM (inactive). In addition, the GI50 in [19] was > 100 µM (inactive).
On to `COc1ccc(NC(=O)CC(=O)n2nc(C)c(/N=N/c3ccc(C)c(C)c3)c2C)cc1`, for which the GI50 in assay [1] was 41.6 µM (inactive); in assay [2], 82.6 µM (inactive); in assay [3] it was 48.3 µM (inactive); in assay [4] it was 16 µM (inactive); in [5], > 100 µM (inactive); in [6] it was 29.4 µM (inactive). Also, the GI50 is > 100 µM (inactive) in [7]; > 100 µM (inactive) in [8]; > 100 µM (inactive) in [9]; 78.3 µM (inactive) in assay [10]; > 100 µM (inactive) in [11]; 29.7 µM (inactive) in assay [12]. Further, the GI50 in assay [13] is > 100 µM (inactive); in assay [14], 33.8 µM (inactive); in assay [15], 26.5 µM (inactive); in assay [16], > 100 µM (inactive); in [17], > 100 µM (inactive); in assay [18], > 100 µM (inactive). Besides, the GI50 in assay [19] is 55.1 µM (inactive).
